A word on the MIC: it is the least concentration at which growth counts as inhibited.

Converted amounts (≈) assume the structure as drawn.

This is an account of results in patent US10369138B2, “Monobactam organic compounds for the treatment of bacterial infections” (Novartis AG, priority 2014, dated 2019).

Type in all cases: cell-based
One assay relates to E. coli containing KPC-2. Description: MIC by broth microdilution, E. coli containing KPC-2 (Ec KPC2 Iso). As to conditions: Escherichia coli, read-out: Ec KPC2 Iso (MIC), E. coli containing KPC-2 (carbapenemase from Klebsiella pneumoniae). A digest of the protocol:
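Host E. coli BW25113 pspB carrying multicopy pBAD18-kan plasmid with constitutive TEM-promoter KPC-2 expression (periplasmic signal sequence); broth microdilution per CLSI in cation-adjusted Mueller-Hinton broth, inoculum ~5×10^5 CFU/mL, compounds twofold serially diluted from DMSO masters (10% DMSO in dilution series added).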
(In general: Dilution methods test growth across graded concentrations, often in twofold steps.)

For a further assay, the system named is E. coli strain 25922. Description: MIC by broth microdilution, E. coli strain 25922. As to conditions: Escherichia coli, 25922, E. coli strain 25922; read-out: Ec 25922 (MIC). The procedure, abridged:
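CLSI broth microdilution in cation-adjusted Mueller-Hinton broth, inoculum about 5×10^5 CFU/mL, 10% DMSO from the diluted series, 20 h at 35-37° C. MIC is the lowest concentration preventing visible growth, read by eye and at 600 nm.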

In assay [1] the test system is E. coli NB27273-CDY0030 (SHV12). The assay is described as follows: MIC by broth microdilution, isogenic E. coli strain expressing SHV12. As to conditions: Escherichia coli, read-out: Strain 3 MIC. The protocol:
(§1) Bacterial isolates were cultivated from −70° C. frozen stocks by two consecutive overnight passages at 35° C. in ambient air on 5% blood agar (Remel, Lenexa, Kans.). Quality control and P. aeruginosa ATCC 27853) is from the American Type Culture Collection (ATCC; Rockville, Md.) and PAO1 was received from Dr. K. Poole.
(§2) Strain NB27273 (BW25113 pspB::Km^r) was obtained from the Keio transposon insertion collection. The strain has the pspB gene replaced by a kanamycin resistance marker (BW25113 pspB::Km^r). This strain was cured of the transposon in pspB via FLP recombinase using published methodology. The resulting strain, BW25113 pspB, was used as a host for multicopy vectors expressing key β-lactamases. Multicopy plasmids directing constitutive expression of β-lactamases were established as follows: Synthetic, codon optimized genes encoding E. coli KPC2 and SHV12 β-lactamases were made by DNA2.0 (Palo Alto, Calif.). Each of the synthetic fragments were designed to contain NotI and NcoI restriction sites at their termini, allowing ligation into a NotI/NcoI digested pET28a(+) derivative for protein expression. […] The codon optimized nucleotide sequences and relevant primer recognition information is shown below:
(§3) The PCR products were then digested with XhoI and EcoRI and ligated into similarly digested plasmid pAH63-pstS(BlaP). Plasmid pAH63-pstS(BlaP) is a derivative of plasmid pAH63 (J Bacteriol: 183(21): 6384-6393) made by cloning the TEM-1 (bla) promoter and signal peptide encoding region from plasmid pBAD (J Bacteriol. 1995 July 177(14):4121-30) into plasmid pAH63. This fragment was PCR amplified from pBAD using primer pair E192 (ttcaCTGCAGtgaacgttgcgaagcaacggC) (SEQ ID NO:13) and E194 (TCGAggatcctcgagagcaaaaacaggaaggcaaaatgccg) (SEQ ID NO:14), digested with PstI and BamHI and inserted into similarly digested plasmid pAH63. Therefore, expression of β-lactamases from pAH63-pstS(BlaP) based constructs is constitutive and the signal sequence is provided to direct these proteins to the periplasm. […] To accomplish this, the inserts encompassing the β-lactamase genes, with the associated TEM promoter and signal sequences, were PCR amplified from their corresponding vectors using primer E269 (ccgTCTAGAcggatggcctttttgcgtttc) (SEQ ID NO:15) and E202 (aatcGAATTCttactgaccattaacgcccaagc) (SEQ ID NO:16) for the KPC2 construct and E204 (aatcGAATTCttaacgctgccagtgctcaatc) (SEQ ID NO:17) for the SHV12 construct. These fragments were then digested with XbaI and EcoRI, and each was inserted into pBAD18-kan that had been digested with the same enzymes to generate a pair of multicopy vectors expressing KPC2 and SHV12 respectively. These vectors were transformed into BW25113 pspB to generate strains NB27273-CDY0033 (expressing KPC2) and NB27273-CDY0030 (expressing SHV12). The pBAD18-kan vector also contains the TEM promoter region and signal sequence, (but lacks any intact β-lactamase genes) and was transformed into BW25113 pspB using standard protocols to generate the control strain NB27273-CDY0026. […] Susceptibility Testing
(§4) Minimal Inhibitory Concentrations (MICs) were determined by the broth microdilution method in accordance with Clinical and Laboratories Institute (CLSI) guidelines. In brief, fresh overnight bacterial cultures were suspended in sterile saline, and adjusted to a 0.5 McFarland turbidity standard. Bacterial suspensions were then diluted in cation adjusted Mueller-Hinton Broth (MHB II; BBL) to yield a final inoculum of approximately 5×10^5 colony-forming units (CFU)/mL. A master plate of antibiotics was prepared at a concentration equivalent to hundred-fold the highest desired final concentration in 100% dimethyl sulfoxide (DMSO). The master antibiotic plate was then diluted by serial twofold dilution with a multichannel pipette. The resulting dilution series of compounds were diluted 1:10 with sterile water leading to a 10% DMSO final concentration.

Assay [2] relates to E. coli NB27273-CDY0026 (parent). The assay is described as follows: MIC by broth microdilution, isogenic E. coli parent strain. The following applies: Escherichia coli, read-out: Strain 1 MIC. The protocol:
as §1, §2, §3, §4

Assay [3] has as its system E. coli NB27273-CDY0033 (KPC2). Description: MIC by broth microdilution, isogenic E. coli strain expressing KPC2. As to conditions: Escherichia coli, read-out: Strain 2 MIC. The protocol:
as §1, §2, §3, §4

Regarding `CC(C)(O/N=C(\C(=O)N[C@@H]1C(=O)N(S(=O)(=O)O)[C@@H]1CN1CCCC1=O)c1csc(N)n1)C(=O)O` [Example 1, 2-(((Z)-(1-(2-aminothiazol-4-yl)-2-oxo-2-(((3S,4R)-2-oxo-4-((2-oxopyrrolidin-1-yl)methyl)-1-sulfoazetidin-3-yl)amino)ethylidene)amino)oxy)-2-methylpropanoic acid], the minimum inhibitory concentration (MIC) was determined as 2 µg/mL (≈ 3.86 µM) with E. coli containing KPC-2; 16 µg/mL (≈ 30.9 µM) in the assay on E. coli strain 25922; 2 µg/mL (≈ 3.86 µM) in assay [1]; 1 µg/mL (≈ 1.93 µM) in assay [2]; 2 µg/mL (≈ 3.86 µM) in assay [3].
For the molecule `CC(C)(O/N=C(\C(=O)N[C@@H]1C(=O)N(S(=O)(=O)O)[C@@H]1Cn1nnc(CN)n1)c1csc(N)n1)C(=O)O` [Example 4, 2-(((Z)-(2-(((2R,3S)-2-((5-(aminomethyl)-2H-tetrazol-2-yl)methyl)-4-oxo-1-sulfoazetidin-3-yl)amino)-1-(2-aminothiazol-4-yl)-2-oxoethylidene)amino)oxy)-2-methylpropanoic acid], the minimum inhibitory concentration (MIC) came to 8 µg/mL (≈ 15 µM) with E. coli containing KPC-2; 1 µg/mL (≈ 1.88 µM) in the assay with E. coli strain 25922; 2 µg/mL (≈ 3.76 µM) in assay [1]; 0.5 µg/mL (≈ 0.939 µM) in assay [2]; 8 µg/mL (≈ 15 µM) in assay [3].
With `Nc1nc(/C(=N/OC2(C(=O)O)CC2)C(=O)N[C@@H]2C(=O)N(S(=O)(=O)O)[C@@H]2CN2CCOC2=O)cs1` [Example 22, 1-(((Z)-(1-(2-aminothiazol-4-yl)-2-oxo-2-(((3S,4R)-2-oxo-4-((2-oxooxazolidin-3-yl)methyl)-1-sulfoazetidin-3-yl)amino)ethylidene)amino)oxy)cyclopropanecarboxylic acid], the MIC is 0.125 µg/mL (≈ 0.241 µM) in the assay with E. coli containing KPC-2; 0.25 µg/mL (≈ 0.482 µM) in the assay with E. coli strain 25922; 0.5 µg/mL (≈ 0.964 µM) in assay [1]; at most 0.06 µg/mL in assay [2]; 0.125 µg/mL (≈ 0.241 µM) in assay [3].
For `N=C(N)NCc1cn(C[C@@H]2[C@H](NC(=O)/C(=N\OC3(C(=O)O)CC3)c3csc(N)n3)C(=O)N2S(=O)(=O)O)nn1` [Example 28, 1-(((Z)-(1-(2-aminothiazol-4-yl)-2-(((2R,3S)-2-((4-(guanidinomethyl)-1H-1,2,3-triazol-1-yl)methyl)-4-oxo-1-sulfoazetidin-3-yl)amino)-2-oxoethylidene)amino)oxy)-cyclopropanecarboxylic acid], the MIC in assay [1] was 0.5 µg/mL (≈ 0.875 µM); in assay [2], at most 0.06 µg/mL; in assay [3], at most 0.06 µg/mL.
As to `N=C(NC1CCNCC1)c1ccc(OC[C@H](O/N=C(\C(=O)N[C@@H]2C(=O)N(S(=O)(=O)O)[C@@H]2Cn2cncn2)c2csc(N)n2)C(=O)O)cc1` [Example 31, (S)-2-(((Z)-(2-(((2R,3S)-2-((1H-1,2,4-triazol-1-yl)methyl)-4-oxo-1-sulfoazetidin-3-yl)amino)-1-(2-aminothiazol-4-yl)-2-oxoethylidene)amino)oxy)-3-(4-(N-(piperidin-4-yl)carbamimidoyl)-phenoxy)propanoic acid], the minimal inhibitory concentration (MIC) came to 0.25 µg/mL (≈ 0.354 µM) in the assay with E. coli containing KPC-2; 0.25 µg/mL (≈ 0.354 µM) in the assay with E. coli strain 25922; 0.5 µg/mL (≈ 0.708 µM) in assay [1]; 0.125 µg/mL (≈ 0.177 µM) in assay [2]; 0.25 µg/mL (≈ 0.354 µM) in assay [3].
Take `NCC1CN(C(=O)OCc2cnn(C[C@@H]3[C@H](NC(=O)/C(=N\OC4(C(=O)O)CC4)c4csc(N)n4)C(=O)N3S(=O)(=O)O)n2)C1` [Example 149, 1-(((Z)-(2-(((2R,3S)-2-((4-(((3-(aminomethyl)azetidine-1-carbonyl)oxy)methyl)-2H-1,2,3-triazol-2-yl)methyl)-4-oxo-1-sulfoazetidin-3-yl)amino)-1-(2-aminothiazol-4-yl)-2-oxoethylidene)amino)oxy)cyclopropanecarboxylic acid]: the MIC in the assay with E. coli containing KPC-2 and with E. coli strain 25922 was 0.5 µg/mL (≈ 0.778 µM) throughout.
As for `N=C(NCc1cnn(C[C@@H]2[C@H](NC(=O)/C(=N\OC3(C(=O)O)CC3)c3csc(N)n3)C(=O)N2S(=O)(=O)O)n1)N1CC[C@H](N)C1` [Example 150, 1-(((Z)-(2-(((2R,3S)-2-((4-(((S)-3-aminopyrrolidine-1-carboximidamido)methyl)-2H-1,2,3-triazol-2-yl)methyl)-4-oxo-1-sulfoazetidin-3-yl)amino)-1-(2-aminothiazol-4-yl)-2-oxoethylidene)amino)oxy)cyclopropanecarboxylic acid], the values for the minimum inhibitory concentration (MIC) in the assay with E. coli containing KPC-2 and in the assay on E. coli strain 25922 were 0.5 µg/mL (≈ 0.78 µM) and 1 µg/mL (≈ 1.56 µM), respectively.
With `CC(NCCCN)c1cnn(C[C@@H]2[C@H](NC(=O)/C(=N\OC3(C(=O)O)CC3)c3csc(N)n3)C(=O)N2S(=O)(=O)O)n1` (stereo partly drawn) [Example 151, 1-(((Z)-(2-(((2R,3S)-2-((4-(1-((3-aminopropyl)amino)ethyl)-2H-1,2,3-triazol-2-yl)methyl)-4-oxo-1-sulfoazetidin-3-yl)amino)-1-(2-aminothiazol-4-yl)-2-oxoethylidene)amino)oxy)cyclopropanecarboxylic acid], the MIC in the assay on E. coli containing KPC-2 and with E. coli strain 25922 was 0.5 µg/mL (≈ 0.832 µM) throughout.
On to `NCCS(=O)(=O)Cc1cnn(C[C@@H]2[C@H](NC(=O)/C(=N\OC3(C(=O)O)CC3)c3csc(N)n3)C(=O)N2S(=O)(=O)O)n1` [Example 152, 1-(((Z)-(2-(((2R,3S)-2-((4-(((2-aminoethyl)sulfonyl)methyl)-2H-1,2,3-triazol-2-yl)methyl)-4-oxo-1-sulfoazetidin-3-yl)amino)-1-(2-aminothiazol-4-yl)-2-oxoethylidene)amino)oxy)cyclopropanecarboxylic acid], for which the MIC in the assay on E. coli containing KPC-2 and in the assay with E. coli strain 25922 was 0.5 µg/mL (≈ 0.804 µM) throughout.
For `C[C@H]1[C@H](NC(=O)/C(=N\OC(C)(C)C(=O)O)c2csc(N)n2)C(=O)N1S(=O)(=O)O` [compound 1, reference compound], in assay [1], the MIC was over 32 µg/mL.
With `NC(=O)OC[C@@H]1[C@H](NC(=O)/C(=N\OCC(=O)O)c2csc(N)n2)C(=O)N1S(=O)(=O)O` [compound 2, reference compound], the MIC in assay [1] is over 32 µg/mL; in assay [2] it was 0.125 µg/mL (≈ 0.268 µM); in assay [3] it was 1 µg/mL (≈ 2.14 µM).
Taken in the same sequence, the figures for `CC1(C)[C@H](NC(=O)/C(=N\OCc2cc(=O)c(O)cn2O)c2csc(N)n2)C(=O)N1OS(=O)(=O)O` [compound 3, reference compound] were over 32 µg/mL, 0.25 µg/mL (≈ 0.482 µM) and 0.5 µg/mL (≈ 0.964 µM).
Taken in the same sequence, the figures for `CC1(C)[C@H](NC(=O)/C(=N\O[C@@H](COc2ccc(C(=N)NC3CCNCC3)cc2)C(=O)O)c2csc(N)n2)C(=O)N1OS(=O)(=O)O` [compound 4, reference compound] were 32 µg/mL (≈ 47.9 µM), at most 0.06 µg/mL and 0.25 µg/mL (≈ 0.374 µM).
